{"source": "patent US20240180910A1", "about": "“METHOD FOR TREATING CANCER WITH A CHEMOTHERAPEUTIC MODIFIER” (Elion Oncology, Inc., priority 2022, published 2024)", "key": {"[1]": {"assay": "clinical", "conditions": "human, in vivo", "protocol": "(§1) To evaluate the safety, dose-limiting toxicities (DLTs), and maximum tolerated dose (MTD) of capecitabine administered to patients with advanced, refractory gastrointestinal tract (GI) tumors using a 7 days on +7 days off capecitabine regimen ˜24 hours after a single, fixed, oral 40 mg dose of eniluracil.\n(§2) Eniluracil (40-50 mg) is orally administrated at Day 1. After 12-24 hours, capecitabine is orally administered. Capecitabine is given twice a day at 140-600 mg/day for a total of 7 days. Then the patient is rested for 7 days before receiving the next cycle which follows the above-described procedures. The cycles are repeated until either the patient has a complete response or when the disease progresses in the patient. A complete response means that the tumor is no longer present. Progression of the cancer means that the tumor starts enlarging or the tumor is no longer stable.\n(§3) Primary Endpoints: • DLTs and incidences of AEs according to NCI CTCAE Version 5.0. • Concentrations of capecitabine, 5 FU, FBAL, 5′ DFCR, and 5′ DFUR in plasma, PK parameters will be estimated from concentration time data using noncompartmental methods, as data permit. • Concentrations of eniluracil in plasma; PK parameters will be estimated from concentration-time data using noncompartmental methods, as data permit. • 2.\n(§4) Briefly, capecitabine was administered to patients with advanced, refractory gastrointestinal tract (GI) tumors using a 7 days on +7 days off capecitabine regimen ˜24 hours after a single, fixed, oral 40 mg dose of eniluracil."}, "[2]": {"conditions": "cited from earlier work; for t1/2: arithmetic mean"}, "[3]": {"conditions": "cited from earlier work"}, "[4]": {"conditions": "colon cancer, adjuvant, XELODA 1250 mg/m^2/bid (n = 995), i.v. 5-FU/LV Mayo Clinic regimen (n = 974), cited from earlier work"}, "[5]": {"tested_on": "patient-derived colon cancer xenograft CXF 280", "conditions": "for Minimum T/C: days 1-14, 22-35, Day 35", "protocol": "This study was to assess the antitumor efficacy of eniluracil in combination with different doses of capecitabine in the patient-derived colon xenograft CXF 280 subcutaneously implanted in immunodeficient athymic nude mice.\nThe study consisted of an in vivo efficacy experiment with the patient-derived colon cancer xenograft CXF 280 implanted subcutaneously in athymic nude mice.\nThis experiment consisted of six groups with six animals each. Animals were dosed in monotherapy with capecitabine at 300 or at 30 mg/kg/day daily for 2 weeks with a one-week dosing break followed by another 2 weeks of daily dosing (14 days ON and 7 days OFF). In combination therapies, capecitabine was dosed at 30, 15 or 7.5 mg/kg/day on days 1-7, 15-21 and 29-35 (7 days ON and 7 days OFF) as well as with eniluracil at 10 mg/kg/day on days 1, 3, 5, 15, 17, 19, 29, 31, and 33.\nCombination therapies with capecitabine and eniluracil scheduled for the same dosing day were administered with a six-hour dosing delay after dosing with eniluracil in order to ensure that all the eniluracil is eliminated in the mouse prior to capecitabine administration.\nAll therapies were administered via oral gavage (p.o.) over the course of 35 days followed by an observation period of one week until day 42 of the experiment.\nRelative tumor volumes (RTVs) for Day x were calculated by dividing the absolute individual tumor volume on Day x (Tx) by the absolute individual tumor volume of the same tumor on the day of randomization (Tr) multiplied by 100%.\nTumor growth inhibition was determined by comparison of the median RTV of the test groups (T) with the vehicle control group (C) and was expressed as minimum T/C value in percent. The minimum T/C value recorded for a test group during an experiment represents the maximum antitumor efficacy for the respective treatment."}, "[6]": {"conditions": "human, in vivo", "protocol": "as §1, §2, §3, §4"}, "[7]": {"conditions": "doses up to 50 g per day administered for seven days; cited from earlier work"}, "[8]": {"assay": "Clinical trial: plasma pharmacokinetics, capecitabine 7 days on + 7 days off ~24 hours after single oral 40 mg eniluracil", "conditions": "day 8", "protocol": "as §1, §2, §3, §4"}, "[9]": {"conditions": "plasma, Day 14, after oral capecitabine 1255 mg/m^2, 8 cancer patients"}, "[10]": {"conditions": "plasma, Day 14, after oral capecitabine 1255 mg/m^2, 8 cancer patients, geometric mean"}, "[11]": {"conditions": "plasma, Day 14, after oral capecitabine 1255 mg/m^2, 8 cancer patients, median"}, "[12]": {"conditions": "2005 EMA for Xeloda, capecitabine alone 1250 mg/m^2"}}, "note": "Read-outs that look alike come from different tables or passages of the source.", "data": [{"smiles": "O=c1[nH]cc(F)c(=O)[nH]1", "note": "[5-FU, 5-Fluorouracil]", "values": [{"measurement": "half-life", "setting": "[1]; 5-FU Day 2 Mean T1/2, capecitabine daily dose 75 (with Eniluracil)", "value": 3.6, "unit": "h"}, {"measurement": "half-life", "setting": "[1]; 5-FU Day 2 Mean T1/2, capecitabine daily dose 150 (with Eniluracil)", "value": 3.35, "unit": "h"}, {"measurement": "half-life", "setting": "[1]; 5-FU Day 2 Mean T1/2, capecitabine daily dose 300 (with Eniluracil)", "value": 3.54, "unit": "h"}, {"measurement": "half-life", "setting": "[1]; 5-FU Day 2 Mean T1/2, capecitabine daily dose 450 (with Eniluracil)", "value": 5.71, "unit": "h"}, {"measurement": "half-life", "setting": "[1]; half-life (T1/2) of 5-FU at day 2, capecitabine in combination with eniluracil pretreatment, highest over doses", "value": "≤ 5.71", "unit": "h"}, {"measurement": "5-FU Mean T1/2", "setting": "[2]; Capecitabine alone", "value": 0.76, "unit": "h"}, {"measurement": "exposure (AUC)", "setting": "[2]; after capecitabine oral dosing at 1255 mg/m^2", "value": "approximately 1630 h*ng/mL"}, {"measurement": "t1/2", "setting": "[2]; [9]", "value": 0.76, "unit": "h"}, {"measurement": "AUC0-t", "setting": "[2]; [10]", "value": 1620, "unit": "ng·h/mL"}, {"measurement": "AUC0-∞", "setting": "[2]; [10]", "value": 1630, "unit": "ng·h/mL"}, {"measurement": "Cmax", "setting": "[2]; [10]", "value": 709, "unit": "ng/mL"}, {"measurement": "tmax", "setting": "[2]; [11]", "value": 2.00, "unit": "h"}, {"measurement": "AUC0-∞", "setting": "[3]; [12]", "value": 2030, "unit": "ng·h/mL"}, {"measurement": "peak plasma concentrations (Cmax)", "setting": "[3]; [12]", "value": 950, "unit": "ng/mL"}]}, {"smiles": "C[C@H]1O[C@@H](n2cc(F)c(N)nc2=O)[C@H](O)[C@@H]1O", "note": "[5′-DFCR, 5′-deoxy-5-fluorocytidine]", "values": [{"measurement": "t1/2", "setting": "[2]; [9]", "value": 1.31, "unit": "h"}, {"measurement": "AUC0-t", "setting": "[2]; [10]", "value": 3970, "unit": "ng·h/mL"}, {"measurement": "AUC0-∞", "setting": "[2]; [10]", "value": 5210, "unit": "ng·h/mL"}, {"measurement": "Cmax", "setting": "[2]; [10]", "value": 1710, "unit": "ng/mL"}, {"measurement": "tmax", "setting": "[2]; [11]", "value": 2.00, "unit": "h"}, {"measurement": "AUC0-∞", "setting": "[3]; [12]", "value": 7240, "unit": "ng·h/mL"}, {"measurement": "peak plasma concentrations (Cmax)", "setting": "[3]; [12]", "value": 3050, "unit": "ng/mL"}, {"measurement": "time to peak plasma concentrations (tmax)", "setting": "[3]; [12]", "value": 2.00, "unit": "h"}]}, {"smiles": "C[C@H]1O[C@@H](n2cc(F)c(=O)[nH]c2=O)[C@H](O)[C@@H]1O", "note": "[5′DFUR, doxifluridine]", "values": [{"measurement": "t1/2", "setting": "[2]; [9]", "value": 0.66, "unit": "h"}, {"measurement": "AUC0-t", "setting": "[2]; [10]", "value": 19900, "unit": "ng·h/mL"}, {"measurement": "AUC0-∞", "setting": "[2]; [10]", "value": 21700, "unit": "ng·h/mL"}, {"measurement": "Cmax", "setting": "[2]; [10]", "value": 9370, "unit": "ng/mL"}, {"measurement": "AUC0-∞", "setting": "[3]; [12]", "value": 24600, "unit": "ng·h/mL"}, {"measurement": "peak plasma concentrations (Cmax)", "setting": "[3]; [12]", "value": 12100, "unit": "ng/mL"}, {"measurement": "time to peak plasma concentrations (tmax)", "setting": "[3]; [12]", "value": 2.00, "unit": "h"}]}, {"smiles": "CCCCCOC(=O)Nc1nc(=O)n([C@@H]2O[C@H](C)[C@@H](O)[C@H]2O)cc1F", "note": "[Capecitabine, capecitabine]", "values": [{"measurement": "Abdominal pain upper, Grade 3/4", "setting": "[4]", "value": "<1", "unit": "%"}, {"measurement": "Abdominal pain upper, Total", "setting": "[4]", "value": 6, "unit": "%"}, {"measurement": "Abdominal pain, Grade 3/4", "setting": "[4]", "value": 2, "unit": "%"}, {"measurement": "Abdominal pain, Total", "setting": "[4]", "value": 10, "unit": "%"}, {"measurement": "Alopecia, Total", "setting": "[4]", "value": 6, "unit": "%"}, {"measurement": "Anorexia, Grade 3/4", "setting": "[4]", "value": "<1", "unit": "%"}, {"measurement": "Anorexia, Total", "setting": "[4]", "value": 9, "unit": "%"}, {"measurement": "Asthenia, Grade 3/4", "setting": "[4]", "value": "<1", "unit": "%"}, {"measurement": "Asthenia, Total", "setting": "[4]", "value": 9, "unit": "%"}, {"measurement": "Conjunctivitis, Grade 3/4", "setting": "[4]", "value": "<1", "unit": "%"}, {"measurement": "Conjunctivitis, Total", "setting": "[4]", "value": 5, "unit": "%"}, {"measurement": "Constipation, Total", "setting": "[4]", "value": 6, "unit": "%"}, {"measurement": "Diarrhea, Grade 3/4", "setting": "[4]", "value": 11, "unit": "%"}, {"measurement": "Dizziness, Grade 3/4", "setting": "[4]", "value": "<1", "unit": "%"}, {"measurement": "Dizziness, Total", "setting": "[4]", "value": 5, "unit": "%"}, {"measurement": "Dysgeusia, Total", "setting": "[4]", "value": 6, "unit": "%"}, {"measurement": "Dyspepsia, Grade 3/4", "setting": "[4]", "value": "<1", "unit": "%"}, {"measurement": "Dyspepsia, Total", "setting": "[4]", "value": 5, "unit": "%"}, {"measurement": "Erythema, Grade 3/4", "setting": "[4]", "value": 1, "unit": "%"}, {"measurement": "Erythema, Total", "setting": "[4]", "value": 6, "unit": "%"}, {"measurement": "Fatigue, Grade 3/4", "setting": "[4]", "value": "<1", "unit": "%"}, {"measurement": "Fatigue, Total", "setting": "[4]", "value": 15, "unit": "%"}, {"measurement": "Hand-foot Syndrome, Grade 3/4", "setting": "[4]", "value": 17, "unit": "%"}, {"measurement": "Lethargy, Grade 3/4", "setting": "[4]", "value": "<1", "unit": "%"}, {"measurement": "Lethargy, Total", "setting": "[4]", "value": 10, "unit": "%"}, {"measurement": "Nausea, Grade 3/4", "setting": "[4]", "value": 2, "unit": "%"}, {"measurement": "Nausea, Total", "setting": "[4]", "value": 33, "unit": "%"}, {"measurement": "Neutropenia, Grade 3/4", "setting": "[4]", "value": "<1", "unit": "%"}, {"measurement": "Neutropenia, Total", "setting": "[4]", "value": 2, "unit": "%"}, {"measurement": "Pyrexia, Grade 3/4", "setting": "[4]", "value": "<1", "unit": "%"}, {"measurement": "Pyrexia, Total", "setting": "[4]", "value": 4, "unit": "%"}, {"measurement": "Rash, Total", "setting": "[4]", "value": 6, "unit": "%"}, {"measurement": "Stomatitis, Grade 3/4", "setting": "[4]", "value": 2, "unit": "%"}, {"measurement": "Stomatitis, Total", "setting": "[4]", "value": 22, "unit": "%"}, {"measurement": "Vomiting, Grade 3/4", "setting": "[4]", "value": 2, "unit": "%"}, {"measurement": "Vomiting, Total", "setting": "[4]", "value": 14, "unit": "%"}, {"measurement": "Diarrhea, Total", "setting": "[4]; listed as XELODA", "value": 46, "unit": "%"}, {"measurement": "Hand-foot Syndrome, Total", "setting": "[4]; listed as XELODA", "value": 60, "unit": "%"}, {"measurement": "Diarrhea, Total", "setting": "[4]; listed as Xeloda", "value": "about 46%"}, {"measurement": "Hand-foot Syndrome, Total", "setting": "[4]; listed as Xeloda", "value": "about 60%"}, {"measurement": "t1/2", "setting": "[2]; [9]", "value": 0.85, "unit": "h"}, {"measurement": "AUC0-t", "setting": "[2]; [10]", "value": 7290, "unit": "ng·h/mL"}, {"measurement": "AUC0-∞", "setting": "[2]; [10]", "value": 7400, "unit": "ng·h/mL"}, {"measurement": "Cmax", "setting": "[2]; [10]", "value": 3990, "unit": "ng/mL"}, {"measurement": "tmax", "setting": "[2]; [11]", "value": 1.50, "unit": "h"}, {"measurement": "AUC0-∞", "setting": "[3]; [12]", "value": 7750, "unit": "ng·h/mL"}, {"measurement": "peak plasma concentrations (Cmax)", "setting": "[3]; [12]", "value": 4670, "unit": "ng/mL"}, {"measurement": "time to peak plasma concentrations (tmax)", "setting": "[3]; [12]", "value": 1.50, "unit": "h"}, {"measurement": "Minimum T/C", "setting": "[5]; Group 2: capecitabine 300 mg/kg/day p.o.", "value": 4.5, "unit": "%"}, {"measurement": "Minimum T/C", "setting": "[5]; Group 3: capecitabine 30 mg/kg/day p.o.", "value": 34.9, "unit": "%"}, {"measurement": "antitumor activity (in words)", "setting": "[5]; monotherapy with capecitabine at 300 mg/kg/day in mice", "value": "high antitumor activity"}]}, {"smiles": "C#Cc1c[nH]c(=O)[nH]c1=O", "note": "[Eniluracil, 5-Ethynyluracil]", "values": [{"measurement": "metabolism of capecitabine into FBAL (AUC and Cmax of FBAL)", "setting": "[6]", "value": "completely blocked"}, {"measurement": "safety", "setting": "[7]", "value": "safe"}]}, {"smiles": "NCC(F)C(=O)O", "note": "(stereo not drawn) [FBAL, α-fluoro-β-alanine]", "values": [{"measurement": "AUC0-t", "setting": "[2]; human, in vivo, po, 1255 mg/m2", "value": 30000, "unit": "ng·h/mL"}, {"measurement": "AUC0-∞", "setting": "[2]; human, in vivo, po, 1255 mg/m2", "value": 35200, "unit": "ng·h/mL"}, {"measurement": "Cmax", "setting": "[2]; human, in vivo, po, 1255 mg/m2", "value": 5320, "unit": "ng/mL"}, {"measurement": "exposure (AUC)", "setting": "[2]; human, in vivo, po, 1255 mg/m2", "value": "30-35,000 h*ng/mL"}, {"measurement": "tmax", "setting": "[2]; human, in vivo, po, 1255 mg/m2", "value": 3.34, "unit": "h"}, {"measurement": "Tmax of FBAL", "setting": "[2]; human, in vivo", "value": 3.24, "unit": "h"}, {"measurement": "t1/2", "setting": "[2]; [9]", "value": 3.23, "unit": "h"}, {"measurement": "AUC0-∞", "setting": "[3]; in vivo, 1250 mg/m2", "value": 36300, "unit": "ng·h/mL"}, {"measurement": "peak plasma concentrations (Cmax)", "setting": "[3]; in vivo, 1250 mg/m2", "value": 5460, "unit": "ng/mL"}, {"measurement": "time to peak plasma concentrations (tmax)", "setting": "[3]; in vivo, 1250 mg/m2", "value": 3.34, "unit": "h"}, {"measurement": "effects of eniluracil on FBAL metabolism", "setting": "[8]", "value": "no longer apparent"}]}, {"smiles": "O=C1NCC(F)C(=O)N1", "note": "(centres unmarked) [FUH2]", "values": [{"measurement": "t1/2", "setting": "[2]; [9]", "value": 1.14, "unit": "h"}, {"measurement": "AUC0-t", "setting": "[2]; [10]", "value": 1200, "unit": "ng·h/mL"}, {"measurement": "AUC0-∞", "setting": "[2]; [10]", "value": 2150, "unit": "ng·h/mL"}, {"measurement": "Cmax", "setting": "[2]; [10]", "value": 442, "unit": "ng/mL"}, {"measurement": "tmax", "setting": "[2]; [11]", "value": 2.28, "unit": "h"}]}]}
